{"source": "paper PMC10259803", "about": "(PLOS Pathogens, 2023)", "key": {"[1]": {"system": "porcine trypsin gold", "experiment": "porcine trypsin gold (Promega #V5280)", "conditions": "room temperature, up to thirty minutes"}, "[2]": {"system": "serine proteases in mouse lung homogenates and sera", "experiment": "Protease levels (fluorescence of substrate BOC)", "format": "biochemical", "conditions": "for Protease levels in lungs and sera of treated mice: poly (I:C) vs control mice (lungs and sera), AEBSF prior to poly (I:C) vs poly (I:C) alone (lungs)", "description": "For ex vivo experiments, the protease levels were measured from the same lung homogenate used in the ex vivo recombination frequency experiment, adapting the protocol from the HAT manufacturer (Bio-techne R&D). After the lungs were incubated with either water or AEBSF, 50 μL of lung homogenate mixture was transferred to a black, 96-well plate. 50 μL of substrate t-Butyloxycarbonyl Phe-Ser-Arg 7-amino-4methyl coumarin (Bachem # I1400) was added directly to the well, incubated for 10 minutes at room temperature, and fluorescence (380 excitation; 460 emission) was detected in a Biotek Cytation 3. Protease levels of lung homogenates incubated with 1 mM and 2 mM AEBSF were compared to that incubated with 0 mM AEBSF using one-way ANOVA and correlation between protease levels and recombination frequency was compared using two-tailed spearman in Graphpad 6.\nFor in vivo experiments, homogenized lungs were further clarified after plating on TSA plates via centrifugation at 10,000xg, 5min. Sera was separated from whole blood via centrifugation at 10,000xg, 5 min in sera-collection tubes. The clarified homogenates and sera were transferred to a black, 96-well plate and 50 μL of substrate t-Butyloxycarbonyl Phe-Ser-Arg 7-amino-4methyl coumarin was added directly to the well and fluorescence (380 excitation; 460 emission) was detected in a Biotek Cytation 3. Protease levels of all groups were compared pairwise for each tissue using unpaired t test and correlation between protease levels and recombination frequency was compared using two-tailed spearman in Graphpad 6."}, "[3]": {"system": "D39x", "experiment": "ex vivo recombination frequency with mouse lung homogenate, D39x", "format": "cell-based, Streptococcus pneumoniae", "conditions": "for ex vivo recombination frequency with homogenized lungs of mice treated in vivo: poly (I:C) 50 μL of 1 mg/mL IN daily 4 days, AEBSF 125 μg IN daily 3 days along with poly (I:C), 0 mM AEBSF ex vivo", "description": "To determine the impact of proteases from the lungs of mice on recombination frequency, a similar experimental setup as the in vitro recombination frequency was performed. […] During culture incubation, the lungs of 10-week-old female Balb/cJ mice (N = 7) were harvested and homogenized in 600 μL PBS. Lung homogenate was incubated with either water or AEBSF for 30 minutes, room temperature. 60 μL of lung homogenate-AEBSF mixture was transferred to a new tube. Addition of CSP1, culture, and gDNA and transformation was performed in the same manner as the in vitro recombination frequency. The final concentration of CSP was 3 μg/mL and gDNA was 2 μg/mL. The final concentration of AEBSF was 0mM, 1 mM, or 2mM. The lung from each mouse was divided into six transformations: D39x with lungs incubated with 0mM, 1 mM, or 2mM AEBSF and D39x comC^- with lungs incubated with 0mM, 1 mM, or 2mM AEBSF. As a control, the same culture of D39x and D39x comC^- were transformed with gDNA and CSP1 incubated with AEBSF in PBS. Recombination frequency of the transformation with CSP1 incubated with 1 mM and with 2 mM AEBSF were compared to that incubated with 0 mM AEBSF using Kruskal-Wallis one-way ANOVA in Graphpad 6.\nLungs were harvested and homogenized in 600 μL PBS. The homogenates from all lungs were subjected to the ex vivo protocol described above and the recombination frequency of D39x and D39x comC^- subjected to lungs incubated with 0mM, 1 mM, or 2mM AEBSF and CSP1 was determined."}, "[4]": {"system": "DLA3", "experiment": "Luminescence assay, DLA3 (PssbB-luc competence reporter)", "conditions": "CSP1; 0.1 mM AEBSF", "procedure": "DLA3 was inoculated in C+Y at OD620~0.03. Either PPT or HAT was incubated with water or AEBSF for 15 minutes, room temperature, followed by incubation with CSP1 for thirty minutes in a total volume of 5 μL 30mM Tris, pH 8.5. When the culture reached OD620~0.08, cells were pelleted at 6,000xg, 5 min and resuspended in fresh C+Y. 100 μL of the culture was added to the Trypsin-AEBSF-CSP mixture, followed by transfer to a white-walled, clear-bottom 96-well plate and addition of 5 μL of 10 mg/mL luciferin (Sigma #L6882). Luminescence and OD620 measurements were taken every 30 minutes in a Biotek Cytation 3."}, "[5]": {"system": "TIGR4", "experiment": "in vitro recombination frequency, TIGR4", "format": "cell-based, Streptococcus pneumoniae", "conditions": "CSP2; PPT or HAT; 0.1 mM AEBSF", "description": "During culture incubation, porcine pancreatic trypsin (PPT; Sigma #T4799) was reconstituted in Hank’s balanced salt solution (Gibco) and incubated with either water or 4-(2-Aminoethyl) benzenesulfonyl fluoride hydrochloride (AEBSF; Cayman #14321) in a total volume of 50μL 30mM Tris, pH 8.5 and incubated for 15 minutes, room temperature. CSP1 or CSP2 was added, followed by incubation for 30 minutes, room temperature. When the culture reached OD620~0.08, 1 mL of culture was transferred to the PPT-AEBSF-CSP mixture and 2 μg of D39 Tn-seq library gDNA (D39 strains) or 2 μg of TIGR4 Tn-seq library gDNA (TIGR4 strains) was added. […] Upon addition of the culture, the final concentration of PPT ranged from 0–10 μg/mL, AEBSF was 0.1 mM, CSP was 3 μg/mL, and gDNA was 2 μg/mL. The transformation was incubated for 3 hours at 37°C, 5% CO2, followed by serial dilution and plating on two TSA blood plates and two TSA blood plates supplemented with 200 μg/mL spectinomycin. To observe low-frequency recombination events, 200 μL of the transformation was also spread plated on two TSA blood plates supplemented with 200 μg/mL spectinomycin. For transformations with HAT incubated CSP, HAT (Bio-techne R&D #2695-SE-010) was reconstituted in 25mM Tris, 150mM NaCl, pH 7.5. All incubation times and final concentrations were the same as for PPT; however, the volumes were 1/10th as that for PPT. […]"}, "[6]": {"system": "DLA3", "experiment": "Growth (OD620) of DLA3", "conditions": "DLA3 with CSP1 incubated with trypsin with and without AEBSF (S1 Fig)", "procedure": "A similar protocol as the in vitro recombination frequency was followed. DLA3 was inoculated in C+Y at OD620~0.03. Either PPT or HAT was incubated with water or AEBSF for 15 minutes, room temperature, followed by incubation with CSP1 for thirty minutes in a total volume of 5 μL 30mM Tris, pH 8.5. When the culture reached OD620~0.08, cells were pelleted at 6,000xg, 5 min and resuspended in fresh C+Y. 100 μL of the culture was added to the Trypsin-AEBSF-CSP mixture, followed by transfer to a white-walled, clear-bottom 96-well plate and addition of 5 μL of 10 mg/mL luciferin (Sigma #L6882). Luminescence and OD620 measurements were taken every 30 minutes in a Biotek Cytation 3. Increasing concentrations of protease within each group (0 mM AEBSF or 0.1 mM AEBSF) were compared using two-way ANOVA in Graphpad 6.\nAbsorbance at OD620 of DLA3 grown in the presence of CSP1 incubated with increasing concentrations of trypsin with and without inhibitor AEBSF. Incubation of CSP1 with PPT (A) without AEBSF or (B) with AEBSF. Incubation of CSP1 with HAT (C) without AEBSF or (D) with AEBSF. Experiment was repeated in triplicate. The mean value of OD620 of each 30-minute timepoint is reported; error bars are SEM."}, "[7]": {"system": "S. pneumoniae D39", "experiment": "in vivo recombination frequency, poly (I:C) / AEBSF treated mice", "conditions": "Balb/cJ mice; poly (I:C) 50 μL of 1 mg/mL IN daily 4 days vs vehicle; AEBSF 125 μg IN prior to poly (I:C) vs poly (I:C) without inhibitor; 20 h after challenge"}, "[8]": {"system": "D39x comC^-", "experiment": "in vitro recombination frequency, D39x comC^-", "format": "cell-based, Streptococcus pneumoniae", "description": "During culture incubation, porcine pancreatic trypsin (PPT; Sigma #T4799) was reconstituted in Hank’s balanced salt solution (Gibco) and incubated with either water or 4-(2-Aminoethyl) benzenesulfonyl fluoride hydrochloride (AEBSF; Cayman #14321) in a total volume of 50μL 30mM Tris, pH 8.5 and incubated for 15 minutes, room temperature. CSP1 or CSP2 was added, followed by incubation for 30 minutes, room temperature. When the culture reached OD620~0.08, 1 mL of culture was transferred to the PPT-AEBSF-CSP mixture and 2 μg of D39 Tn-seq library gDNA (D39 strains) or 2 μg of TIGR4 Tn-seq library gDNA (TIGR4 strains) was added. […] Upon addition of the culture, the final concentration of PPT ranged from 0–10 μg/mL, AEBSF was 0.1 mM, CSP was 3 μg/mL, and gDNA was 2 μg/mL. The transformation was incubated for 3 hours at 37°C, 5% CO2, followed by serial dilution and plating on two TSA blood plates and two TSA blood plates supplemented with 200 μg/mL spectinomycin. To observe low-frequency recombination events, 200 μL of the transformation was also spread plated on two TSA blood plates supplemented with 200 μg/mL spectinomycin. For transformations with HAT incubated CSP, HAT (Bio-techne R&D #2695-SE-010) was reconstituted in 25mM Tris, 150mM NaCl, pH 7.5. All incubation times and final concentrations were the same as for PPT; however, the volumes were 1/10th as that for PPT. For both PPT and HAT, the experiment was repeated at least three times."}, "[9]": {"biological_target": "T1, porcine trypsin (Sus scrofa, UniProt P00761)", "T1 construct": "purchased Promega V5280", "T1 sequence (P00761 9-231)": "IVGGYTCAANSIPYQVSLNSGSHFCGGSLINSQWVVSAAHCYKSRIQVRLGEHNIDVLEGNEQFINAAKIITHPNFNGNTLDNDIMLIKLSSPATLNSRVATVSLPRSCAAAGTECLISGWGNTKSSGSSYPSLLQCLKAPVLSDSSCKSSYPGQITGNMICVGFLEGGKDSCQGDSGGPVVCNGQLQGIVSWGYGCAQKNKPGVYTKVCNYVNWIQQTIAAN", "experiment": "Mass spectrometry of CSP cleavage by porcine trypsin", "format": "in vitro ADME", "conditions": "30 min, room temperature", "description": "Fig 1 Serine proteases cleave competence-stimulating peptide of S. pneumoniae. (A) Sequence of competence-stimulating peptide 1 (CSP1) and peptide 2 (CSP2). Red arrows indicate potential cleavage sites by trypsin-like serine proteases. (B) Mass spectrometry analysis of cleaved residues of CSP1 upon incubation with no trypsin (grey) or with porcine trypsin (black) for 30 minutes. (C) Mass spectrometry analysis of cleaved residues of CSP1 upon incubation with no trypsin (grey) or with human airway trypsin (HAT) (black) for 30 minutes. (D) Mass spectrometry analysis of cleaved residues of CSP2 upon incubation with no trypsin (grey) or with porcine trypsin (black) for 30 minutes. (E) Mass spectrometry analysis of cleaved residues of CSP2 upon incubation with no trypsin (grey) or with HAT (black) for 30 minutes. (B-E) The fraction of each peptide detected by mass spectrometry was calculated by dividing the area of the cleaved peptide by the total area of all peptides. In the case of two cleavage sites on the same peptide, the fraction was equally attributed to both cleavage sites. […]\nCSPs was incubated with either porcine trypsin gold (Promega #V5280) or human airway trypsin-like protease (HAT; Bio-techne R&D #2695-SE-010) for thirty minutes, room temperature. […] The eluted peptides were ionized by electrospray ionization and detected by an inline mass spectrometer (Thermo Orbitrap Fusion). […]"}}, "data": [{"molecule": "EMRISRIILDFLFLRKK", "values": [{"measurement": "cleaved bond", "setting": "[1]", "result": "R6-I7 and E-M and D-F"}]}, {"molecule": "Cl.NCCc1ccc(S(=O)(=O)F)cc1", "note": "[AEBSF, 4-(2-Aminoethyl) benzenesulfonyl fluoride hydrochloride]", "values": [{"measurement": "levels of serine proteases in the lung homogenates", "setting": "[2]; lung homogenate incubated with 1 or 2 mM AEBSF, BOC substrate fluorescence", "result": "decreased"}, {"measurement": "Protease levels in lungs and sera of treated mice", "setting": "[2]; BOC substrate fluorescence", "result": "reduced"}, {"measurement": "recombination frequency with CSP1 incubated with AEBSF alone", "setting": "[3]; CSP1 in PBS with increasing AEBSF, no lung homogenate, D39x and D39x comC^- (S3 Fig)", "result": "did not increase"}, {"measurement": "recombination frequency with CSP1 incubated with lung homogenates treated with AEBSF", "setting": "[3]; mouse lung homogenate incubated 30 min with 1 or 2 mM AEBSF vs 0 mM", "result": "increased"}, {"measurement": "ex vivo recombination frequency with homogenized lungs of mice treated in vivo", "setting": "[3]", "result": "restored"}, {"measurement": "PPT-caused reduction of DLA3 luminescence when PPT was pre-incubated with AEBSF", "setting": "[4]", "result": "abrogated"}, {"measurement": "protease-caused reduction of recombination frequency when proteases were incubated with AEBSF", "setting": "[5]", "result": "abrogated"}, {"measurement": "Growth of S. pneumoniae (OD620)", "setting": "[6]", "result": "not reduced"}, {"measurement": "in vivo recombination frequency of D39 in lungs and blood", "setting": "[7]", "result": "higher frequency"}, {"measurement": "recombination frequency with CSP1 incubated with PPT or HAT pre-incubated with AEBSF", "setting": "[8]; 0.1 mM AEBSF, protease pre-incubated 15 min", "result": "at a similar level as that of the no trypsin control"}]}, {"molecule": "CC[C@H](C)[C@H](NC(=O)[C@H](Cc1ccccc1)NC(=O)[C@H](CC(=O)O)NC(=O)[C@H](CCCNC(=N)N)NC(=O)[C@H](Cc1ccccc1)NC(=O)[C@H](Cc1ccccc1)NC(=O)[C@H](CCCCN)NC(=O)[C@H](CO)NC(=O)[C@H](CC(C)C)NC(=O)[C@H](CCCNC(=N)N)NC(=O)[C@H](CCSC)NC(=O)[C@@H](N)CCC(=O)O)C(=O)N[C@@H](CC(C)C)C(=O)N[C@@H](CCC(N)=O)C(=O)N[C@@H](CCCNC(=N)N)C(=O)N[C@@H](CCCCN)C(=O)N[C@@H](CCCCN)C(=O)O", "note": "[CSP1]", "values": [{"measurement": "recombination frequency after incubation of CSP with mouse lung homogenate", "setting": "[3]; mouse lung homogenate, ex vivo", "result": "reduced"}, {"measurement": "preferential cleavage site, porcine trypsin", "setting": "[9]", "result": "R15 followed by K6 and R9"}, {"measurement": "HAT concentration to reduce the recombination frequency to below 5% of 0 trypsin", "setting": "[8]; CSP incubated with HAT 30 min, room temperature", "result": 1, "unit": "µg/mL"}, {"measurement": "PPT concentration to reduce the recombination frequency to below 5% of 0 trypsin", "setting": "[8]; CSP incubated with PPT 30 min, room temperature", "result": 0.05, "unit": "µg/mL"}]}, {"molecule": "poly (I:C)", "values": [{"measurement": "Protease levels in lungs and sera of treated mice", "setting": "[2]; BOC substrate fluorescence", "result": "higher"}, {"measurement": "protease levels in inflamed lungs, equated to recombinant HAT", "setting": "[2]; recombinant HAT standard, 35000 RFU = 0.05 μg/mL, non-inflamed lungs 0.079 (±0.010)", "result": "0.168 (±0.012) μg/mL"}, {"measurement": "ex vivo recombination frequency with homogenized lungs of mice treated in vivo", "setting": "[3]", "result": "reduced"}, {"measurement": "in vivo recombination frequency of D39 in lungs and blood", "setting": "[7]", "result": "significant reduction"}]}]}
